We go through 7 molecules from US20200096503A1, “CELL MEMBRANE COATED MAGNETIC NANOPARTICLES AND ASSAYS FOR IDENTIFICATION OF TRANSMEMBRANE PROTEIN-BINDING COMPOUNDS” (The Board of Trustees of The University of Alabama, priority 2018, published 2020).

The target of test [1] is T1, TrkB receptors (Homo sapiens, UniProt Q16620).
T1 construct: expressed in transfected cells; host or cells: SH-SY5Y neuroblastoma cells stably overexpressing TrkB
Kind of test: Fishing experiments with CMNPs with immobilized TrkB receptors, artificial mixture. It is filed as binding. As to conditions: equimolar (100 nM) mixture, HPLC-ESI-MS of washing and elution profiles. As to the method: Functional TrkB receptors (example of tyrosine kinase receptors) were immobilized on nanoparticles using the CMNPs technology described herein. Neuroblastoma SH-SY5Y cell line stably overexpressing TrkB receptors were used. Cell membrane fragments and nanoparticles used in the preparation of CMNPs were obtained using the previously optimized protocols, as described for the nicotinic receptors.
The fishing experiments were performed using the procedure previously optimized and described herein for nicotinic receptors. Washing and elution steps were performed using solvents previously reported for nicotinic receptor experiments. The difference between nicotinic and TrkB receptor experiments was with the type of artificial mixture components.

The test system of test [2] is negative control CMNPs prepared with the parental SH-SY5Y cell line without TrkB receptors. Kind of test: Fishing with negative control CMNPs prepared with the parental SH-SY5Y cell line without TrkB receptors. It is filed as binding. The text has this: The use of negative control CMNPs prepared with the parental SH-SY5Y cell line without TrkB receptors allowed discernment between specific and non-specific interactions. […] Compounds interacting only with CMNPs expressing TrkB receptors and not interacting with negative control CMNPs are specifically binding with TrkB receptors.

Test [3] concerns the target T1, TrkB receptors. Kind of test: Conversion of ATP to ADP by immobilized TrkB receptors on CMNPs (HPLC-ESI-MS). It is filed as biochemical. The note with it: for conversion of ATP to ADP by CMNPs with TrkB receptors: 5 mM ATP, 100 μM activator. As to the method:
To further test the activity of the immobilized TrkB receptors, additional experiments that focused on determining the ability of the immobilized receptors to convert ATP to ADP were performed, a process commonly performed by all types of tyrosine kinase receptors. Tyrosine kinases, when active, convert ATP to ADP as they use phosphate groups to phosphorylate targeted proteins in the process of signal transduction inside a cell. […] 37° C.

A further test has as its system nicotinic receptors. Kind of test: Ligand fishing with CMNPs with immobilized nicotinic receptors, artificial mixture of known binders and non-binders. The note with it: equimolar (100 nM) artificial mixture; three washes with ammonium acetate buffer; elution buffer:methanol (9:1, v/v). The class given is binding. Here is the method:
Fishing experiments can be used to evaluate the CMNP assay. As an example, CMNPs were constructed with immobilized nicotinic receptors. Parameters include selectivity, detection limit, stability, and reuse of CMNPs. The assay or fishing experiment (FIG. 3A) involves magnetic separation of CMNPs with bound compounds after 20 min incubation in an artificial mixture of known binders and nonbinders. After 3 washes with buffer, receptor-bound compounds are released during the elution process. Eluted compounds can be analyzed by high-performance liquid chromatography coupled with diode-array detection and electrospray ionization tandem mass spectrometry (HPLC-DAD-MS).
(§1) Screening experiments can be conducted with samples of various level of complexity (artificial mixtures, natural extracts with known binders). First, artificial mixtures of known binders and non-binders can be used to evaluate selectivity. In a particular example, CMNPs containing nicotinic receptors were prepared. An artificial equimolar (100 nM) mixture of known binders and non-binders was also prepared. Known binders included known nicotinic receptor binders: nicotine (#1), anabasine (#2), cytisine (#3) and non-binders: butyrylcholine iodide (#4), berberine (#5), warfarin (#6) and caffeic acid (#7). First, the CMNPs (˜10^9) were placed in 0.5 mL artificial mixture and incubated. CMNPs were subsequently washed three times with ammonium acetate buffer. After washing, CMNPs were eluted with a buffer:methanol (9:1, v/v) mixture. In both the washing and elution steps, CMNPs were separated from supernatant using a magnet.

The subject of test [4] is CMNPs prepared using parental HEK cell line not expressing nicotinic receptors. Kind of test: Fishing with negative control CMNPs prepared from parental HEK cell line not expressing nicotinic receptors. The class given is binding. The note with it: fishing experiments, data not shown. Here is the method:
as §1
As an example, CMNPs containing nicotinic receptors were used to screen a different set of potential binders in a crude mixture: that of tobacco smoke condensates (FIG. 5). The results obtained with nicotinic receptor CMNPs were compared with those obtained for negative control CMNPs. […] Therefore, the only difference between nicotinic and negative control CMNPs is the absence of nicotinic receptors in control CMNPs. After three washes with ammonium acetate buffer, the CMNPs were eluted using first ammonium acetate buffer:methanol mixture (9:1, v/v; elutions 1-3), and then ammonium acetate buffer methanol mixture (1:9, v/v, elution 4).

The structures appear in SMILES notation.

T1 sequence (Q16620 32-822): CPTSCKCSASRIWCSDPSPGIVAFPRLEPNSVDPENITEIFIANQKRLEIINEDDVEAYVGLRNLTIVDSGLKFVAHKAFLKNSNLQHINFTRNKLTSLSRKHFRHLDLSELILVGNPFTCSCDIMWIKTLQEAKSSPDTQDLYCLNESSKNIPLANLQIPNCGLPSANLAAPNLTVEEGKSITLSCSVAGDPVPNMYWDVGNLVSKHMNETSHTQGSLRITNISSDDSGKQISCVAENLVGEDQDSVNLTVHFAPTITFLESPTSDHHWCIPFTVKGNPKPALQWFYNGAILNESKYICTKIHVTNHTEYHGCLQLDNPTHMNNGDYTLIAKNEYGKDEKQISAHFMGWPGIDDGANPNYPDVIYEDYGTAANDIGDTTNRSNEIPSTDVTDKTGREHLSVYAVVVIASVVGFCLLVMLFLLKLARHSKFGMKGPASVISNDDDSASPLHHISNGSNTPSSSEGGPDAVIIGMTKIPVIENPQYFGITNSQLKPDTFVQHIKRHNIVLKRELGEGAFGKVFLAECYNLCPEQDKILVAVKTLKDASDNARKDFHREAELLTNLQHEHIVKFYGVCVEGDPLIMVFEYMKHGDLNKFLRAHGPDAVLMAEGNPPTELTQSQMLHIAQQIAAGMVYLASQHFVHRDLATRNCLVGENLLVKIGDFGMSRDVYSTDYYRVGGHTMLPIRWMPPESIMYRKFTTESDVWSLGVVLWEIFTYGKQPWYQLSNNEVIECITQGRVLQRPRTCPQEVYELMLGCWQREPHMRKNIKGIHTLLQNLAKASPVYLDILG

Turning to `O=c1cc(-c2ccccc2)oc2c(O)c(O)ccc12` [7,8-dihydroxyflavone], the “retention by / interaction with CMNPs with immobilized TrkB receptors” value at TrkB receptors [1] is on record as “interacted only with CMNPs with TrkB receptors”; on TrkB receptors [1] (listed as 7,8-DHF), “retained”. Further, the “interaction with negative control CMNPs without TrkB receptors” value in test [2] is recorded as “no interaction”. For the same molecule, the “conversion of ATP to ADP by CMNPs with TrkB receptors” value is listed as “almost complete conversion of ATP to ADP” on TrkB receptors [3] (24-hour incubation, 4° C.); “progressing conversion of ATP to ADP” at TrkB receptors [3] (30 and 60 min, 37° C.). Moreover, the “conversion of ATP to ADP by nanoparticles themselves (structures inside CMNPs)” value on TrkB receptors [3] (nanoparticles without cell membrane, ATP (5 mM), activator 100 μM) is “did not lead to the conversion of ATP to ADP”.

`CN1CCCC1c1cccnc1` (stereo not drawn) [nicotine]: in the test with nicotinic receptors, the “retention by CMNPs with immobilized nicotinic receptors (washing/elution, HPLC)” value (“retention by CMNPs … (washing/elution, HPLC)” for short) is “selectively retained”. Moreover, in test [4], the “nonspecific binding to CMNPs from parental HEK cell line not expressing nicotinic receptors” value is listed as “lack of nonspecific binding”. Besides, the “retention by / interaction with CMNPs with immobilized TrkB receptors” value was “retained small amount” on TrkB receptors [1]; “interacted both with CMNPs with and without TrkB receptors” on TrkB receptors [1] (listed as Nicotine). Also, the “interaction with negative control CMNPs without TrkB receptors” value in test [2] is “interacted both with CMNPs with and without TrkB receptors”.

As for `O=c1cccc2n1C[C@@H]1CNC[C@H]2C1` [cytisine], in the test with nicotinic receptors, the “retention by CMNPs … (washing/elution, HPLC)” value is “selectively retained”. In addition, the “nonspecific binding to CMNPs from parental HEK cell line not expressing nicotinic receptors” value in test [4] is “lack of nonspecific binding”.

Take `c1cncc([C@@H]2CCCCN2)c1` [anabasine]: in the test with nicotinic receptors, the “retention by CMNPs … (washing/elution, HPLC)” value was “selectively retained”. The “nonspecific binding to CMNPs from parental HEK cell line not expressing nicotinic receptors” value in test [4] is “lack of nonspecific binding”.

In the case of `COc1ccc2cc3[n+](cc2c1OC)CCc1cc2c(cc1-3)OCO2` [berberine], the “retention by CMNPs … (washing/elution, HPLC)” value in the test with nicotinic receptors is listed as “absence”.

As to `CCCC(=O)OCC[N+](C)(C)C.[I-]` [butyrylcholine, butyrylcholine iodide], the “retention by CMNPs … (washing/elution, HPLC)” value in the test on nicotinic receptors is listed as “absence”.

For `O=C(O)/C=C/c1ccc(O)c(O)c1` [caffeic acid], the “retention by CMNPs … (washing/elution, HPLC)” value in the test with nicotinic receptors is recorded as “absence”.
